Reference: patent publication US8889397B2, “Nucleotides for prevention and treatment of bacterial and fungal pathologies” (priority 2003, dated 2014)

Tests used:
SM101 = experiment: inhibition of bacterial growth by ODN (OD600 or viable cell count); format: cell-based, E. coli; conditions: ODN 40 μM or 400 μM, 30° C., 2, 4 or 6 h
Protocol: Immediately after diluting the O/N cultures 1/50, ODN was added to final concentrations of 4 uM, 40 μM or 400 μM with equal volume water as a negative control, and incubated with shaking at 30° C. After 2, 4 or 6 h, the growth was measured by viable cell count, which was done by diluting the cultures and plating on LB plates with streptomycin.
The inhibition of bacterial growth by ODN was evaluated by examining the effect of ODN dosage on SM101 growth. In this study, an ODN having the sequence CTC ATA CTC T was added to the 1/50 diluted O/N SM101 cell cultures, at final concentration of 40 μM or […] with addition of equal volume water as a negative control, and incubated with shaking at 30° C. After 2, 4 or 6 h, the growth was measured by either the optical density at 600 nm (OD600) or viable cell count, which was done by diluting the cultures and plating them in triplicate on LB plates with streptomycin.

K12 = experiment: inhibition of bacterial growth by peptide-ODN conjugate (viable cell count); format: cell-based, E. coli; conditions: conjugate 4 μM, 40 μM or 400 μM, 37° C., 2 hours
Protocol: The inhibition of bacterial growth by peptide-[…] conjugate was evaluated by examining the effect of conjugate dose on the ability of conjugate to inhibit K12 growth. In this study, a peptide-ODN conjugate having the sequence
was added to the 1/50 diluted O/N K12 cell cultures, and final concentration of 4 μM, 40 μM, or 400 μM, with addition of equal volume water as a negative control, and incubated with shaking at 37° C. Immediately after, diluting the O/N culture 1/50, peptide-ODN conjugate was added to final concentration of 4 μM, 40 μM, or […], with addition of equal volume water as a negative control, and incubated with shaking at 37° C. After 2 hours, growth was measured by viable cell count by diluting the cultures and plating in triplicate on LB plates. […] Reduction of Mouse Bacterial Load in Blood by Peptide-ODN Conjugate.

FtsZ RNA = experiment: in vitro cleavage of FtsZ RNA by DNA enzyme in a cell-free system; format: biochemical; conditions: 37° C., 100 nM template FtsZ RNA, 100 μM DNA enzyme, 10 mM MgCl2, pH 7.5; products 368 nt and 857 nt
Protocol: Lane 1 is a control reaction incubated for 2 hrs in the absence of DNA enzyme. S: substrate; P1 (857 nt) and P2 (368 nt): DNA enzyme digestion products.
The ability of the pssXGb(FtsZ-DZ) expression vector of the present invention to produce DNA enzyme molecules in bacterial cells was tested by evaluating the cleavage activity of the designed DNA enzyme in a cell-free system. The 1225 nt FtsZ RNA, produced by in vitro transcription, is used as a substrate and the cleavage assay is carried out at 37° C. for various period of time as indicated in a 10 μl reaction containing 10 mM MgCl2, 50 mM Tris-HCl, pH 7.5, 100 nM template FtsZ RNA, 100 μM DNA enzyme, and 10 units RNasin.

E. coli XL10-gold(kan) = experiment: growth of XL10-gold(kan) transformed with ODN expression plasmid; format: cell-based; conditions: XL10-gold(kan) transformants; LB with chloramphenicol, 37° C. O/N
Protocol: The transformants were plated on LB media with chloramphenicol and incubated at 37° C.
The antibacterial efficacy of the ODN CYGX080103 was further evaluated in two separate experiments. The first was designed to examine the conditionally lethal effect of the ODN expression plasmid in the host cell DH5αPro, the bacterial strain employed in the library screening. The second experiment was designed to study the effect of the ODN expression plasmid on other bacterial strains. In the first study, the ODN expression plasmid and the plasmid without ODN insert as negative control were transformed into DH5αPro and plated onto LB media with or without 200 ng/ml aTc. […] DH5αPro cells carrying the plasmid without the ODN insert grow on both media (FIG. 10B). In the second study, the ODN expression plasmid and the plasmid without ODN insert were transformed into E. coli XL10-gold(kan). The resulted transformants were plated on LB media with chloramphenicol and incubated at 37° C.
In this study, the ODN expression plasmid As080103, having the sequence CYGX080103 listed above, and plasmid pssxGb without ODN insert as negative control, were transformed into E. coli XL10-goldokan). The resulting cell cultures were plated on LB media with chloramphenicol and incubated at 37° C.

DH5αPro = experiment: conditionally lethal effect of ODN expression plasmid in DH5αPro on LB media with or without aTc; format: cell-based; conditions: DH5αPro carrying the plasmid; with or without 200 ng/ml aTc
Protocol: Colonies were grown in duplicate in LB plates with or without aTc. Positive clone (containing the pssXGb vector including the sequence CYGX080103) is marked by an arrow.
The CYGX080103 plasmid and the plasmid without ODN insert as negative control were transformed into DH5αPro and plated onto LB media with or without 200 ng/ml aTc. […] DH5αPro carrying plasmid without the ODN insert grows on both media (FIG. 10B).
Since the ssDNA expression library was constructed based on a tetracycline inducible vector, bacterial cells containing the ssDNA expression library were plated in duplicate in Luria broth (LB) plates in the presence or absence 200 ng/ml aTc. […] Plasmid DNA was extracted from the positive colony from the library screening, and the insert sequences determined by 3′ end single-pass sequencing. The insert generated by this set of experiments was named CYGX080103, with sequence of:
The antibacterial efficacy of the ODN CYGX080103 was further evaluated in two separate experiments. The first was designed to examine the conditionally lethal effect of the ODN expression plasmid in the host cell DH5αPro, the bacterial strain employed in the library screening. The second experiment was designed to study the effect of the ODN expression plasmid on other bacterial strains. […]

5′(CTC ATA CTC T)3′ (DNA CTCATACTCT; chemistry not given here) [CYGXacpP, ODN targeting the bacterial essential fatty acid biosynthesis gene acpP]
cell growth inhibited (SM101): 86-96%

KFFKFFKFFK-CTC ATA CTC T (KFFKFFKFFK peptide conjugated to PNA) [peptide-ODN conjugate, peptide-PNA conjugate]
cell growth inhibited (K12): 82-99.8%

5′-GTTTCGAAGGCTAGCTACAACGATCATCCAG-3′ (listed as DNA, chemistry not fully specified) [CYGXFtsZDZ, 31 nt 10-23 DNA enzyme targeted against the GU site at position 880 of FtsZ mRNA]
cleavage of FtsZ RNA (FtsZ RNA): effectively cleave the FtsZ RNA in as short a time as 0.5 hr

B1: 5′-CTTTCAACAGTTTTGATGACCTTTGCTGACCATACAATTGCGATATCGTGGGGAGTGAGAG-3′ (nucleic acid)
DNA: CTTTCAACAGTTTTGATGACCTTTGCTGACCATACAATTGCGATATCGTGGGGAGTGAGAG
modifications: expressed or natural sequence
notes: ODN insert of the positive clone from ssDNA expression library screening
growth on LB media (E. coli XL10-gold(kan)): no XL10-gold(kan) carrying ODN expression plasmid grew | growth on LB media (DH5αPro): grow normally on the media without aTc but not on media with aTc
